Measurements taken from paper PMC11542830, “3-nitropyridine analogues as novel microtubule-targeting agents” (PLOS ONE, 2024).

How the values were obtained:
[1] = tested on: microtubule network in A549 cells; assay: Immunofluorescence staining of alpha-tubulin in A549 cells; format: cell-based, human; settings: 4 hours, 250 nM
Description: Non-small cell lung carcinoma A549 cells were seeded at 50,000 cells/well in an 8-well Nunc™ Lab-Tek™ chambered coverglass slide. After overnight incubation, they were treated with compound or carrier (DMSO) for 4 hours and then fixed with 4% PFA, washed and permeabilized (0.2% Triton X-100 in PBS). Further treatment was performed according to standard immunofluorescence procedures, employing 10% normal goat serum (Thermo Fisher Scientific) as blocking medium and as antibody diluent. Employed antibodies were mouse anti-alpha tubulin (sc-5286, Santa Cruz Biotechnology) at 1:300 dilution and secondary goat anti-mouse IgG conjugated to Alexa Fluor® 488 (A11001, Invitrogen, Thermo Fisher Scientific). Cell nuclei were counterstained with DAPI. Images were collected with a Leica TCS SP5 confocal microscope employing a HCX PL APO 63x (NA 1.2) water immersion objective.

A549/ATCC = assay: NCI60 5-dose screen, A549/ATCC; format: cell-based; settings: Homo sapiens, non-small cell lung cancer, Fig 1D, read-out: Log10 GI50 (A549/ATCC) (converted)
Description: (§1) The screening methodology used in the NCI60 Cell 5-Doses screen is described in detail at https://dtp.cancer.gov/discovery_development/nci-60/methodology.htm. Briefly, cells are seeded in 96 well plates at an appropriate density and incubated for 1 day. After 1 day, some of the plates are processed to determine a time zero density. To the remaining plates, compounds are added over a 5-log M concentration range (1 log dilutions from 10^-4M to 10^-8M). Plates are incubated for two additional days, then fixed and stained with sulforhodamine B. Growth inhibition is calculated relative to cells without drug treatment and the time zero control. The GI50 is the concentration of a compound that causes 50% growth inhibition, relative to the no drug control.

SF-539 = assay: NCI60 5-dose screen, SF-539; format: cell-based; settings: Homo sapiens, CNS cancer, Fig 1D, read-out: Log10 GI50 (SF-539) (converted)
Description: as §1

SF-268 = assay: NCI60 5-dose screen, SF-268; format: cell-based; settings: Homo sapiens, CNS cancer, Fig 1D, read-out: Log10 GI50 (SF-268) (converted)
Description: as §1

LOX IMVI = assay: NCI60 5-dose screen, LOX IMVI; format: cell-based; settings: Homo sapiens, melanoma, Fig 1D, read-out: Log10 GI50 (LOX IMVI) (converted)
Description: as §1

CCRF-CEM = assay: NCI60 5-dose screen, CCRF-CEM; format: cell-based; settings: Homo sapiens, leukemia, Fig 1D, read-out: Log10 GI50 (CCRF-CEM) (converted)
Description: as §1

BT-549 = assay: NCI60 5-dose screen, BT-549; format: cell-based; settings: Homo sapiens, breast cancer, Fig 1D, read-out: Log10 GI50 (BT-549) (converted)
Description: as §1

SK-MEL-5 = assay: NCI60 5-dose screen, SK-MEL-5; format: cell-based; settings: Homo sapiens, melanoma, Fig 1D, read-out: Log10 GI50 (SK-MEL-5) (converted)
Description: as §1

HS 578T = assay: NCI60 5-dose screen, HS 578T; format: cell-based; settings: Homo sapiens, breast cancer, Fig 1D, read-out: Log10 GI50 (HS 578T) (converted)
Description: as §1

786-0 = assay: NCI60 5-dose screen, 786-0; format: cell-based; settings: Homo sapiens, renal cancer, Fig 1D, read-out: Log10 GI50 (786-0) (converted)
Description: as §1

CAKI-1 = assay: NCI60 5-dose screen, CAKI-1; format: cell-based; settings: Homo sapiens, renal cancer, Fig 1D, read-out: Log10 GI50 (CAKI-1) (converted)
Description: as §1

NCI-H322M = assay: NCI60 5-dose screen, NCI-H322M; format: cell-based; settings: Homo sapiens, non-small cell lung cancer, Fig 1D, read-out: Log10 GI50 (NCI-H322M) (converted)
Description: as §1

NCI-H460 = assay: NCI60 5-dose screen, NCI-H460; format: cell-based; settings: Homo sapiens, non-small cell lung cancer, Fig 1D, read-out: Log10 GI50 (NCI-H460) (converted)
Description: as §1

SW-620 = assay: NCI60 5-dose screen, SW-620; format: cell-based; settings: Homo sapiens, colon cancer, Fig 1D, read-out: Log10 GI50 (SW-620) (converted)
Description: as §1

SNB-75 = assay: NCI60 5-dose screen, SNB-75; format: cell-based; settings: Homo sapiens, CNS cancer, Fig 1D, read-out: Log10 GI50 (SNB-75) (converted)
Description: as §1

COLO 205 = assay: NCI60 5-dose screen, COLO 205; format: cell-based; settings: Homo sapiens, colon cancer, Fig 1D, read-out: Log10 GI50 (COLO 205) (converted)
Description: as §1

HT-29 cells = assay: Clonogenic assay on HT-29 cells; format: cell-based; settings: Homo sapiens, 144 h; HT-29, 6 days of incubation, colonies counted; read-out: IC50 (HT-29 cell proliferation, clonogenic assay)
Description: All experiments were performed under standard cell culture conditions at 37°C and 5% CO2. Colorectal adenocarcinoma HT-29 cells were seeded at 300 cells/well in triplicate in six well microtiter plates in RPMI-1640 medium supplemented with 10% fetal bovine serum and 25 μg/ml gentamicin (complete medium). Twenty-four hours later, the compounds were added in complete medium in final concentrations ranging from 10 μM to 0.1 nM. Cells were allowed to grow until they formed colonies for 6 days. The colonies were fixed with 100% methanol, stained with Trypan blue 0.4% in saline and the number of colonies was counted. The number of colonies in the treated wells was normalized to the number obtained in the untreated wells. Three biological independent experiments were performed for each compound.

UO-31 = assay: NCI60 5-dose screen, UO-31; format: cell-based; settings: Homo sapiens, renal cancer, Fig 1D, read-out: Log10 GI50 (UO-31) (converted)
Description: as §1

HL-60(TB) = assay: NCI60 5-dose screen, HL-60(TB); format: cell-based; settings: Homo sapiens, leukemia, Fig 1D, read-out: Log10 GI50 (HL-60(TB)) (converted)
Description: as §1

SN12C = assay: NCI60 5-dose screen, SN12C; format: cell-based; settings: Homo sapiens, renal cancer, Fig 1D, read-out: Log10 GI50 (SN12C) (converted)
Description: as §1

HCT-15 = assay: NCI60 5-dose screen, HCT-15; format: cell-based; settings: Homo sapiens, colon cancer, Fig 1D, read-out: Log10 GI50 (HCT-15) (converted)
Description: as §1

RPMI-8226 = assay: NCI60 5-dose screen, RPMI-8226; format: cell-based; settings: Homo sapiens, leukemia, Fig 1D, read-out: Log10 GI50 (RPMI-8226) (converted)
Description: as §1

SMILES	effect on microtubule network [1]	GI50 (A549/ATCC)	GI50 (SF-539)	GI50 (SF-268)	GI50 (LOX IMVI)	GI50 (CCRF-CEM)	GI50 (BT-549)	GI50 (SK-MEL-5)	GI50 (HS 578T)	GI50 (786-0)	GI50 (CAKI-1)	GI50 (NCI-H322M)	GI50 (NCI-H460)	GI50 (SW-620)	GI50 (SNB-75)	GI50 (COLO 205)	IC50 (HT-29 cells)	GI50 (UO-31)	GI50 (HL-60(TB))	GI50 (SN12C)	other results
Cc1cc(C)cc(Nc2ccc([N+](=O)[O-])c(NCCN3CCOCC3)n2)c1 [Compound 4AZA2891, 6-(3,5-dimethylanilino)-2-(2-morpholinoethylamino)-3-nitropyridine]	disintegrate the microtubule network	20 nM	< 10 nM	135 nM	11.5 nM	33.1 nM	58.9 nM	< 10 nM	16.6 nM	52.5 nM	< 10 nM	81.3 nM	17.4 nM	14.8 nM	< 10 nM	21.4 nM	5.4 nM	1380 nM	25.7 nM	70.8 nM	GI50 (HCT-15): < 10 nM; GI50 (RPMI-8226): 36.3 nM
Cc1ccnc(Nc2ccc([N+](=O)[O-])c(NCCN3CCOCC3)n2)c1 [Compound 4AZA2996, N^6-(4-methylpyridin-2-yl)-N^2-(2-morpholinoethyl)-3-nitropyridine-2,6-diamine]	disintegrate the microtubule network	< 10 nM	< 10 nM	58.9 nM	< 10 nM	26.3 nM	19.1 nM	< 10 nM	< 10 nM	12.9 nM	< 10 nM	46.8 nM	< 10 nM	< 10 nM	< 10 nM	< 10 nM	4 nM	< 10 nM	< 10 nM	47.9 nM	GI50 (HCT-15): < 10 nM; GI50 (RPMI-8226): 26.9 nM
